From ChEMBL document CHEMBL1133240, “Michael adducts of ascorbic acid as inhibitors of protein phosphatase 2A and inducers of apoptosis” (Bioorg Med Chem Lett, 2000)

Columns and labels:
[1] = test system: HIT; assay: Inhibitory concentration against casein dephosphorylation (casein is a substrate of PP-2A) by a HIT cell extract; type: functional, cell-free; conditions: Homo sapiens
[2] = Compound was evaluated for inhibitory effect against casein dephosphorylation (casein is a substrate of PP-2A) by a HIT cell extract relative to cantharidic acid (100 uM); type: functional, cell-based, Homo sapiens
[3] = Lethal dose was evaluated in HIT 100R cells; type: toxicity, cell-based; conditions: human, read-out: LC50 (the source's name)
[4] = Lethal dose was evaluated in parental HIT cells; type: toxicity, cell-based; conditions: read-out: LC50 (the source's name)
[5] = test system: HIT; assay: Compound was evaluated for inhibitory effect against casein dephosphorylation (casein is a substrate of PP-2A) by a HIT cell extract at 1000 uM; Some inhibition; type: functional, cell-based; conditions: Homo sapiens
[6] = Compound was evaluated for inhibitory effect against casein dephosphorylation (casein is a substrate of PP-2A) by a HIT cell extract with Okadaic acid (225 nM) or Cantharidic acid (100 uM); type: functional, cell-based, Homo sapiens
[7] = Compound was evaluated for inhibitory effect against casein dephosphorylation (casein is a substrate of PP-2A) by a HIT cell extract at 100 uM; type: functional; conditions: Homo sapiens

C=C1[C@@H](O)[C@@H]2O[C@]3(CC[C@H](/C=C/[C@@H](C)[C@@H]4CC(C)=C[C@@]5(O[C@H](C[C@@](C)(O)C(=O)O)CC[C@H]5O)O4)O3)CC[C@H]2O[C@@H]1[C@@H](O)C[C@H](C)[C@H]1O[C@@]2(CCCCO2)CC[C@H]1C
Concentration [1]: 225 nM

O=C1O[C@@H]2[C@@H](O)CO[C@]2(O)[C@@]1(O)C(C[N+](=O)[O-])c1ccc(Cl)cc1 (some centres undefined)
IC50 [2]: 70 µM
CC50 [3]: 7.9 µM
CC50 [4]: 5.6 µM

CCCCCCCCCCCCCCCC(=O)OC[C@@H](O)[C@H]1OC(=O)[C@]2(CCC(OC(C)C)O2)C1=O (some centres undefined)
inhibition [5]: Some inhibition

CCCCCCCCCCCCCCCC(=O)OC[C@@H](O)[C@H]1OC(=O)[C@]2(O)CCC(O)O[C@]12OC (some centres undefined)
IC50 [6]: 175 µM
CC50 [3]: 126 µM
CC50 [4]: 100 µM
inhibition at 100 µM [7]: 40%
